Assay results published in patent US8163768B2, “1,4-dihydropyridine-fused heterocycles, process for preparing the same, use and compositions containing them” (Aventis Pharma S.A.., priority 2005, dated 2012).
Where a name gives a salt, the structure may show the parent alone.

Assays:
[1] = molecular target: T1, Aurora1 (Aurora-B) (Homo sapiens, UniProt Q96GD4); assay: Aurora 1 (Aurora B) kinase radioactivity scintillation assay using nickel chelate Flash plates; format: biochemical; conditions: 10 nM Aurora-B (co expressed with C3 fragment of INCEP), 500 nM NuMA substrate, 1 μM ATP with [33P] ATP, 5 mM MgCl2, 30 minutes, 37° C.
T1 construct: Aurora-B: the full length protein (His tagged in N-terminal) has been co expressed in SF9 cells; poly-histidine (N); made in house; host or cells: SF9 cells
Procedure, shortened: (§1)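 10 nM Aurora-B or Aurora-A with 500 nM NuMA-His substrate, 1 μM ATP plus [³³P]ATP, in 50 mM NaCl, 1 mM DTT and 5 mM (B) or 10 mM (A) MgCl2, 30 min at 37° C on nickel-chelate plates. Incorporated ³³P counted after washing, background-subtracted; IC50 fitted from % inhibition versus concentration.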

[2] = molecular target: T2, Aurora2 (Aurora-A) (Homo sapiens, UniProt O14965); assay: Aurora 2 (Aurora A) kinase radioactivity scintillation assay using nickel chelate Flash plates; format: biochemical; conditions: 10 nM Aurora-A, 500 nM NuMA substrate, 1 μM ATP with [33P] ATP, 10 mM MgCl2, 30 minutes, 37° C.
T2 construct: Aurora-A: the full length recombinant protein including an N-terminal poly-histidine tail has been expressed in E. coli; poly-histidine (N); made in house; host or cells: E. coli
T2 sequence (O14965 1-403): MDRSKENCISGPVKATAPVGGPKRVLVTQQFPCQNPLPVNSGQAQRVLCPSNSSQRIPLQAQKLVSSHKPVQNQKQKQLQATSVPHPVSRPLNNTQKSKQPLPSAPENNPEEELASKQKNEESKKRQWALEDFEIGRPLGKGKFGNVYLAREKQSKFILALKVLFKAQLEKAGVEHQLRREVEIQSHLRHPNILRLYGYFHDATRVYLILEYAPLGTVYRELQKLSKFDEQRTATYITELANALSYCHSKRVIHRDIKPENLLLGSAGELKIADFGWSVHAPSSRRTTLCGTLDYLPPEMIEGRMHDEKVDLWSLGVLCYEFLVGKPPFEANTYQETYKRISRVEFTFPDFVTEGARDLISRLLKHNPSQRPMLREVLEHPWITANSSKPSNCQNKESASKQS
Procedure, shortened: as §1

T1 sequence (Q96GD4 whole entry, species assumed, the tested form may be a part): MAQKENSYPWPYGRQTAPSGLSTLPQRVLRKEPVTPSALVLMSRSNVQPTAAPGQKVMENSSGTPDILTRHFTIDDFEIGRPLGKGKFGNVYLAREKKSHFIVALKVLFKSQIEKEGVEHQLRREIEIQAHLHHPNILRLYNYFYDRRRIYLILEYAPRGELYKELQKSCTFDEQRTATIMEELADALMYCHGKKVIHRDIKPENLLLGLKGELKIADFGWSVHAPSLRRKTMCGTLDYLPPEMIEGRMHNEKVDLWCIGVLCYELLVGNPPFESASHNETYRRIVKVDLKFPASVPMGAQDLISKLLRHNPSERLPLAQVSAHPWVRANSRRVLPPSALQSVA
T1 sequence (Q9NQS7 821-918 partner limits assumed, species assumed): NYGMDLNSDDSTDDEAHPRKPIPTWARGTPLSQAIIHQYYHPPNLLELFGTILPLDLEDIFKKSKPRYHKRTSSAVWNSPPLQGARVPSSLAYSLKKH

Structure (SMILES)	IC50 [1] [nM]	IC50 [2] [nM]	melting point [°C]
CCOC(=O)c1[nH]cc2c1NC1=C(C(=O)CCC1)C2c1ccc(Sc2nc3cc(OC)ccc3[nH]2)o1 (stereo not shown) [Example 110, 9-[5-(5-Methoxy-1H-benzimidazol-2-ylsulfanyl)-furan-2-yl]-8-oxo-4,5,6,7,8,9-hexahydro-2H-pyrrolo[3,4-b]quinoline-3-carboxylic acid ethyl ester]	8	21	140
CCOC(=O)c1[nH]cc2c1NC1=C(C(=O)CNC1)C2c1ccc(Sc2nc3cc(OC)ccc3[nH]2)o1 (stereo not shown) [Example 111, 9-[5-(6-Methoxy-1H-benzimidazol-2-ylsulfanyl)-furan-2-yl]-8-oxo-4,5,6,7,8,9-hexahydro-2H-pyrrolo[3,4-b][1,7]naphthyridine-3-carboxylic acid ethyl ester]	501	1250	248
CCOC(=O)c1[nH]cc2c1NC1=C(C(=O)CCC1)C2c1ccc(Sc2nc3cccnc3[nH]2)o1 (stereo not shown) [Example 112, 9-[5-(3H-Imidazo[4,5-b]pyridin-2-ylsulfanyl)-furan-2-yl]-8-oxo-4,5,6,7,8,9-hexahydro-2H-pyrrolo[3,4-b]quinoline-3-carboxylic acid ethyl ester]	12	–	190 to 202
CCOC(=O)c1[nH]cc2c1NC1=C(C(=O)CNC1)C2c1ccc(Sc2nc3cc(F)c(F)cc3[nH]2)o1 (stereo not shown) [Example 115, 9-[5-(5,6-Difluoro-1H-benzimidazol-2-ylsulfanyl)-furan-2-yl]-8-oxo-4,5,6,7,8,9-hexahydro-2H-pyrrolo[3,4-b][1,7]naphthyridine-3-carboxylic acid ethyl ester]	8	48	190 to 196
CCOC(=O)c1[nH]cc2c1NC1=C(C(=O)CCC1)C2c1ccc(Sc2nc3cc(Cl)c(Cl)cc3[nH]2)o1 (stereo not shown) [Example 116, 9-[5-(5,6-Dichloro-1H-benzimidazol-2-ylsulfanyl)-furan-2-yl]-8-oxo-4,5,6,7,8,9-hexahydro-2H-pyrrolo[3,4-b]quinoline-3-carboxylic acid ethyl ester]	6	54	180
CCOC(=O)c1[nH]cc2c1NC1=C(C(=O)CCC1)C2c1cnc(Sc2nc3ccccc3[nH]2)s1 (stereo not shown) [Example 118, 9-[2-(1H-Benzimidazol-2-ylsulfanyl)-thiazol-5-yl]-8-oxo-4,5,6,7,8,9-hexahydro-2H-pyrrolo[3,4-b]quinoline-3-carboxylic acid ethyl ester]	–	–	194
CCOC(=O)c1[nH]cc2c1NC1=C(C(=O)CCC1)C2c1ccc(Sc2nc3cc4c(cc3[nH]2)OC(F)(F)O4)o1 (stereo not shown) [Example 139, 9-[5-(2,2-Difluoro-5H-[1,3]dioxolo[4′,5′:4,5]benzo[1,2-d]imidazol-6-ylsulfanyl)-furan-2-yl]-8-oxo-4,5,6,7,8,9-hexahydro-2H-pyrrolo[3,4-b]quinoline-3-carboxylic acid ethyl ester]	19	124	–
CCOC(=O)c1[nH]cc2c1NC1=C(C(=O)CN(C(=O)OC(C)(C)C)C1)C2c1ccc(Sc2nc3cc4c(cc3[nH]2)OC(F)(F)O4)o1 (stereo not shown) [Example 140]	1660	3900	–
CCOC(=O)c1[nH]cc2c1NC1=C(C(=O)CNC1)C2c1ccc(Sc2nc3cc4c(cc3[nH]2)OC(F)(F)O4)o1 (stereo not shown) [Example 141, 9-[5-(2,2-Difluoro-5H-[1,3]dioxolo[4′,5′:4,5]benzo[1,2-d]imidazol-6-ylsulfanyl)-furan-2-yl]-8-oxo-4,5,6,7,8,9-hexahydro-2H-pyrrolo[3,4-b]-1,7-naphthyridine-3-carboxylic acid ethyl ester hydrochloride]	20	87	–
CCOC(=O)c1[nH]cc2c1NC1=C(C(=O)CNC1)C2c1ccc(Sc2nc3cc(F)cc(F)c3[nH]2)o1 (stereo not shown) [Example 143, 9-[5-(5,7-Difluoro-1H-benzimidazol-2-ylsulfanyl)-furan-2-yl]-8-oxo-4,5,6,7,8,9-hexahydro-2H-pyrrolo[3,4-b]-1,7-naphthyridine-3-carboxylic acid ethyl ester hydrochloride]	7	26	–
O=C1CCCC2=C1C(c1ccc(Sc3nc4cc(F)cc(F)c4[nH]3)o1)c1c[nH]nc1N2 (stereo not shown) [Example 144, 4-[5-(5,7-Difluoro-1H-benzimidazol-2-ylsulfanyl)-furan-2-yl]-2,4,6,7,8,9-hexahydro-pyrazolo[3,4-b]quinolin-5-one]	6	28	–
O=C1CNCC2=C1C(c1ccc(Sc3nc4cc(F)cc(F)c4[nH]3)o1)c1c[nH]nc1N2 (stereo not shown) [Example 145, 4-[5-(5,7-Difluoro-1H-benzimidazol-2-ylsulfanyl)-furan-2-yl]-2,4,6,7,8,9-hexahydro-pyrazolo[3,4b]-1,7-naphthyridin-5-one hydrochloride]	16	131	–
CCOC(=O)c1[nH]cc2c1NC1=C(C(=O)CCC1)C2c1ccc(Sc2nc3cc(F)c(Cl)cc3[nH]2)o1 (stereo not shown) [Example 146, 9-[5-(6-Chloro-5-fluoro-1H-benzimidazol-2-ylsulfanyl)-furan-2-yl]-8-oxo-4,5,6,7,8,9-hexahydro-2H-pyrrolo[3,4-b]quinoline-3-carboxylic acid ethyl ester]	6	41	–
CCOC(=O)c1[nH]cc2c1NC1=C(C(=O)CNC1)C2c1ccc(Sc2nc3cc(F)c(Cl)cc3[nH]2)o1 (stereo not shown) [Example 147, 9-[5-(6-Chloro-5-fluoro-1H-benzimidazol-2-ylsulfanyl)-furan-2-yl]-8-oxo-4,5,6,7,8,9-hexahydro-2H-pyrrolo[3,4-b]-1,7-naphthyridine-3-carboxylic acid ethyl ester hydrochloride]	9	67	–
CCOC(=O)c1[nH]cc2c1NC1=C(C(=O)CNC1)C2c1ccc(Sc2nc3cc(F)ccc3[nH]2)o1 (stereo not shown) [Example 149, 9-[5-(5-Fluoro-1H-benzimidazol-2-ylsulfanyl)-furan-2-yl]-8-oxo-4,5,6,7,8,9-hexahydro-2H-pyrrolo[3,4-b]-1,7-naphthyridine-3-carboxylic acid ethyl ester hydrochloride]	11	55	–
CCOC(=O)c1[nH]cc2c1NC1=C(C(=O)CCC1)C2c1ccc(Sc2nc3cc(OC(F)(F)F)ccc3[nH]2)o1 (stereo not shown) [Example 150, 8-Oxo-9-[5-(5-trifluoromethoxy-1H-benzimidazol-2-ylsulfanyl)-furan-2-yl]-4,5,6,7,8,9-hexahydro-2H-pyrrolo[3,4-b]quinoline-3-carboxylic acid ethyl ester]	19	29	–
CCOC(=O)c1[nH]cc2c1NC1=C(C(=O)CNC1)C2c1ccc(Sc2nc3cc(OC(F)(F)F)ccc3[nH]2)o1 (stereo not shown) [Example 151, 8-Oxo-9-[5-(5-trifluoromethoxy-1H-benzimidazol-2-ylsulfanyl)-furan-2-yl]-4,5,6,7,8,9-hexahydro-2H-pyrrolo[3,4-b][1,7]naphthyridine-3-carboxylic acid ethyl ester hydrochloride]	14	60	–
